This assay addresses T1, human GLP-1 receptor (GLP-1R) (Homo sapiens, UniProt P43220).
T1 construct: expressed in transfected cells
The assay can be described thus: cAMP accumulation assay, CHO-K1 cells stably expressing human GLP-1R. It counts as cell-based. Particulars: cAMP accumulation, mean pEC50, Table 10. The method, then: In the presence of the non-specific cAMP/cGMP phosphodiesterase inhibitor, 3-isobutyl-1-methylxanthine (IBMX), accumulating cAMP can be measured in vitro using common detection methods. Thus, it is possible to estimate an in vitro potency (pEC50) for peptides activating each of these receptors using fit dose-response curves for cAMP accumulation.
CHO-K1 cells stably expressing human GLP-1R (Genebank accession #NM_002062) were grown in 90% F12-K media supplemented with 10% FBS and 250 μg/ml G418.
On day 1, CHO-K1 cells were plated at 1.5 million cells per T75 flask in 90% F12-K media supplemented with 10% FBS. On day 3 cells were transfected with 40 mcg of each expression plasmid using Lipofectamine 2000 transfection reagent. On day 5, cells were dispensed at 1000 cells per well in white 384-well OptiPlates in 5 mcL of assay buffer consisting of 1×HBSS, 5 mM HEPES, 0.5 mM IBMX, and 0.1% casein.
Peptides were serially diluted 4-fold in assay buffer to final concentrations ranging from 1×10^−9 M to 9.5×10^−16 M. Two assay controls consisting of 50 mcM forskolin (cAMP system maximum) or assay buffer only (cAMP system minimum) were also prepared. Five microliters of each peptide-concentration, or assay control, was added to triplicate wells and incubated for thirty minutes at room temperature. During this incubation step a 4× europium labelled cAMP tracer solution and a 4× Ulight®-anti-cAMP solution (consisting of an anti-cAMP monoclonal antibody labelled with Ulight™ dye) was prepared according to the manufacturer's protocol (PerkinElmer LANCE Ultra cAMP kit). Following this incubation, 5 mcL europium labelled cAMP and 5 mcL Ulight anti-cAMP antibody was added to each well. The plate was covered to prevent evaporation and incubated for 60 minutes at room temperature in the dark. Plates were read on an Envision fluorescent plate reader (PerkinElmer).
Test values were first normalized to the system maximum and system minimum averaged values in Excel using the formula: (test value−system min average)/(system max average -system min average)*100. Normalized test values represent a baseline corrected percentage of the system maximum cAMP response induced by forskolin. Data from up to 3 replicate tests were analyzed for each peptide. Potency values were estimated using GraphPad Prism software (v7.04) by fitting data to a 4-parameter logistic curve model: Y=Bottom+(Top−Bottom)/(1+10^((LogEC50−X))). The Hill slope was constrained to 1.0. EC50 values were converted to pEC50 values using the formula: pEC50=−Log (EC50).

Structures are written as SMILES. *1 amine or outer side, *2 acyl side, *3 side chain or, on linkers, in order; H or OH if unused. Where a SMILES comes first, the peptide text is derived from it. Bridges are numbered along the chain shown (N, C = ends). Side-chain parts run from the residue outwards. [ ]: non-standard residue; d: D form. The star is where a group is joined. C20 diacid = O=C(O)CCCCCCCCCCCCCCCCCCC(=O)*; γGlu = O=C(O)[C@H](CCC(=O)[*:2])N[*:1]; AEEA = NCCOCCOCC(=O)O; Aib = CC(C)(N)C(=O)O

T1 sequence (P43220 24-463): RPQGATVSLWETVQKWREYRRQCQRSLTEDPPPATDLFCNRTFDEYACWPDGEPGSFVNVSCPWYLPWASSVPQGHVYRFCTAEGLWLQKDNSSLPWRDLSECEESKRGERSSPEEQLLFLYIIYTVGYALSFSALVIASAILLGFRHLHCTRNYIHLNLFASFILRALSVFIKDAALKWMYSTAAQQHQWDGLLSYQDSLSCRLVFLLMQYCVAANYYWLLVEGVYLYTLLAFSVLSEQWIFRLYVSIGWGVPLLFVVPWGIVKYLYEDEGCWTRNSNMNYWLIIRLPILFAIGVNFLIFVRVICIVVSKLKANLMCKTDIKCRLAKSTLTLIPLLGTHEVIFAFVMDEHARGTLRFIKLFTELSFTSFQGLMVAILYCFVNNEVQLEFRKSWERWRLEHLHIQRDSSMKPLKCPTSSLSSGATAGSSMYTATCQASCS

As usually defined, the EC50 is the midpoint of the concentration-response curve. As for `CC(C)C[C@H](NC(=O)[C@H](Cc1ccc(O)cc1)NC(=O)[C@H](CCCCN)NC(=O)[C@H](CO)NC(=O)[C@H](Cc1ccc(O)cc1)NC(=O)[C@H](CC(=O)O)NC(=O)[C@H](CO)NC(=O)[C@@H](NC(=O)[C@H](Cc1ccccc1)NC(=O)[C@@H](NC(=O)CNC(=O)[C@H](Cc1c[nH]cn1)NC(=O)[C@H](CO)NC(=O)[C@@H](N)Cc1ccc(O)cc1)[C@@H](C)O)[C@@H](C)O)C(=O)N[C@@H](CC(=O)O)C(=O)N[C@@H](CCCCNC(=O)CC[C@H](NC(=O)CC[C@H](NC(=O)COCCOCCNC(=O)CCCCCCCCCCCCCCCCCCC(=O)O)C(=O)O)C(=O)O)C(=O)N[C@@H](CCCCN)C(=O)N[C@@H](Cc1ccc(O)cc1)C(=O)N[C@@H](C)C(=O)N[C@@H](CCC(N)=O)C(=O)N[C@@H](CCC(=O)O)C(=O)N[C@@H](Cc1ccccc1)C(=O)N[C@H](C(=O)NC(C)(C)C(=O)N[C@@H](Cc1c[nH]c2ccccc12)C(=O)N[C@@H](CC(C)C)C(=O)N[C@@H](CCC(=O)O)C(=O)N[C@@H](CCC(=O)O)C(=O)N[C@@H](CCC(=O)O)C(=O)N1CCC[C@H]1C(=O)N[C@@H](CO)C(=O)N[C@@H](CO)C(=O)NCC(=O)N[C@@H](C)C(=O)N1CCC[C@H]1C(=O)N1CCC[C@H]1C(=O)N1CCC[C@H]1C(=O)N[C@@H](CO)C(=O)O)C(C)C` [Compound A15] (H-YSHGTFTSDYSKYLDK([γGlu-γGlu-AEEA-C20 diacid])KYAQEFV[Aib]WLEEEPSSGAPPPS-OH), the EC50 was above 1 nM.

`CC(C)C[C@H](NC(=O)[C@H](Cc1ccc(O)cc1)NC(=O)[C@H](CCCCN)NC(=O)[C@H](CO)NC(=O)[C@H](Cc1ccc(O)cc1)NC(=O)[C@H](CC(=O)O)NC(=O)[C@H](CO)NC(=O)[C@@H](NC(=O)[C@H](Cc1ccccc1)NC(=O)[C@@H](NC(=O)CNC(=O)[C@H](Cc1c[nH]cn1)NC(=O)[C@H](CO)NC(=O)[C@@H](N)Cc1ccc(O)cc1)[C@@H](C)O)[C@@H](C)O)C(=O)N[C@@H](CC(=O)O)C(=O)N[C@@H](CCCCNC(=O)CC[C@H](NC(=O)CC[C@H](NC(=O)COCCOCCNC(=O)CCCCCCCCCCCCCCCCCCC(=O)O)C(=O)O)C(=O)O)C(=O)N[C@@H](CCCCN)C(=O)N[C@@H](Cc1ccc(O)cc1)C(=O)N[C@@H](C)C(=O)N[C@H]1CCC(=O)NCCCC[C@@H](C(=O)N[C@@H](Cc2c[nH]c3ccccc23)C(=O)N[C@@H](CC(C)C)C(=O)N[C@@H](CCC(=O)O)C(=O)N[C@@H](CC(=O)O)C(=O)N[C@@H](CCC(=O)O)C(=O)N2CCC[C@H]2C(=O)N[C@@H](CO)C(=O)N[C@@H](CO)C(=O)NCC(=O)N[C@@H](C)C(=O)N2CCC[C@H]2C(=O)N2CCC[C@H]2C(=O)N2CCC[C@H]2C(=O)N[C@@H](CO)C(=O)O)NC(=O)[C@H](C(C)C)NC(=O)[C@H](Cc2ccccc2)NC(=O)[C@H](CCCCN)NC1=O` [Compound A21] (H-YSHGTFTSDYSKYLDK([γGlu-γGlu-AEEA-C20 diacid])KYAEKFVKWLEDEPSSGAPPPS-OH; lactam 20-24; N-terminus assumed) had an EC50 above 1 nM.

For `CC(C)C[C@H](NC(=O)[C@H](Cc1ccc(O)cc1)NC(=O)[C@H](CCCCN)NC(=O)[C@H](CO)NC(=O)[C@H](Cc1ccc(O)cc1)NC(=O)[C@H](CC(=O)O)NC(=O)[C@H](CO)NC(=O)[C@@H](NC(=O)[C@H](Cc1ccccc1)NC(=O)[C@@H](NC(=O)CNC(=O)[C@H](Cc1c[nH]cn1)NC(=O)[C@H](CO)NC(=O)[C@@H](N)Cc1ccc(O)cc1)[C@@H](C)O)[C@@H](C)O)C(=O)N[C@@H](CC(=O)O)C(=O)N[C@@H](CCCCNC(=O)CC[C@H](NC(=O)CC[C@H](NC(=O)COCCOCCNC(=O)CCCCCCCCCCCCCCCCCCC(=O)O)C(=O)O)C(=O)O)C(=O)N[C@@H](CCCCN)C(=O)N[C@@H](Cc1ccc(O)cc1)C(=O)N[C@@H](C)C(=O)N[C@@H](CCC(N)=O)C(=O)N[C@@H](CCC(=O)O)C(=O)N[C@@H](Cc1ccccc1)C(=O)N[C@H](C(=O)NC(C)(C)C(=O)N[C@@H](Cc1c[nH]c2ccccc12)C(=O)N[C@@H](CC(C)C)C(=O)N[C@@H](CCC(=O)O)C(=O)N[C@@H](CCC(N)=O)C(=O)N[C@@H](CCC(=O)O)C(=O)N1CCC[C@H]1C(=O)N[C@@H](CO)C(=O)N[C@@H](CO)C(=O)NCC(=O)N[C@@H](C)C(=O)N1CCC[C@H]1C(=O)N1CCC[C@H]1C(=O)N1CCC[C@H]1C(=O)N[C@@H](CO)C(=O)O)C(C)C` [Compound A17] (H-YSHGTFTSDYSKYLDK([γGlu-γGlu-AEEA-C20 diacid])KYAQEFV[Aib]WLEQEPSSGAPPPS-OH; N-terminus assumed), the EC50 is above 1 nM.

`CC(C)C[C@H](NC(=O)[C@H](Cc1ccc(O)cc1)NC(=O)[C@H](CCCCN)NC(=O)[C@H](CO)NC(=O)[C@H](Cc1ccc(O)cc1)NC(=O)[C@H](CC(=O)O)NC(=O)[C@H](CO)NC(=O)[C@@H](NC(=O)[C@H](Cc1ccccc1)NC(=O)[C@@H](NC(=O)CNC(=O)[C@H](Cc1c[nH]cn1)NC(=O)[C@H](CO)NC(=O)[C@@H](N)Cc1ccc(O)cc1)[C@@H](C)O)[C@@H](C)O)C(=O)N[C@@H](CC(=O)O)C(=O)N[C@@H](CCCCNC(=O)CC[C@H](NC(=O)CC[C@H](NC(=O)COCCOCCNC(=O)CCCCCCCCCCCCCCCCCCC(=O)O)C(=O)O)C(=O)O)C(=O)N[C@@H](CCCCN)C(=O)N[C@@H](Cc1ccc(O)cc1)C(=O)N[C@@H](C)C(=O)N[C@@H](CCC(N)=O)C(=O)N[C@@H](CCC(=O)O)C(=O)N[C@@H](Cc1ccccc1)C(=O)N[C@H](C(=O)NC(C)(C)C(=O)N[C@@H](Cc1c[nH]c2ccccc12)C(=O)N[C@@H](CC(C)C)C(=O)N[C@@H](CCC(=O)O)C(=O)N[C@@H](CC(N)=O)C(=O)N[C@@H](CCC(=O)O)C(=O)N1CCC[C@H]1C(=O)N[C@@H](CO)C(=O)N[C@@H](CO)C(=O)NCC(=O)N[C@@H](C)C(=O)N1CCC[C@H]1C(=O)N1CCC[C@H]1C(=O)N1CCC[C@H]1C(=O)N[C@@H](CO)C(=O)O)C(C)C` [Compound A16] (H-YSHGTFTSDYSKYLDK([γGlu-γGlu-AEEA-C20 diacid])KYAQEFV[Aib]WLENEPSSGAPPPS-OH) came in with a half-maximal effective concentration (EC50) above 1 nM.

In turn, `CC(C)C[C@@H]1NC(=O)[C@H](Cc2c[nH]c3ccccc23)NC(=O)[C@@H](NC(=O)[C@@H](NC(=O)[C@H](Cc2ccccc2)NC(=O)[C@H](CCCCNC(=O)CC[C@H](NC(=O)CC[C@H](NC(=O)COCCOCCNC(=O)CCCCCCCCCCCCCCCCCCC(=O)O)C(=O)O)C(=O)O)NC(=O)[C@H](CCC(N)=O)NC(=O)[C@H](C)NC(=O)[C@H](Cc2ccc(O)cc2)NC(=O)[C@H](CCCCN)NC(=O)C(C)(C)NC(=O)[C@H](CC(=O)O)NC(=O)[C@H](CC(C)C)NC(=O)[C@H](Cc2ccc(O)cc2)NC(=O)[C@H](CCCCN)NC(=O)[C@H](CO)NC(=O)[C@H](Cc2ccc(O)cc2)NC(=O)[C@H](CC(=O)O)NC(=O)[C@H](CO)NC(=O)[C@@H](NC(=O)[C@H](Cc2ccccc2)NC(=O)[C@@H](NC(=O)CNC(=O)[C@H](Cc2c[nH]cn2)NC(=O)[C@H](CO)NC(=O)[C@@H](N)Cc2ccc(O)cc2)[C@@H](C)O)[C@@H](C)O)C(C)C)CCCCNC(=O)C[C@@H](C(=O)N[C@@H](CCC(=O)O)C(=O)N2CCC[C@H]2C(=O)N[C@@H](CO)C(=O)N[C@@H](CO)C(=O)NCC(=O)N[C@@H](C)C(=O)N2CCC[C@H]2C(=O)N2CCC[C@H]2C(=O)N2CCC[C@H]2C(=O)N[C@@H](CO)C(=O)O)NC(=O)[C@H](CCC(=O)O)NC1=O` [Compound A30] (H-YSHGTFTSDYSKYLD[Aib]KYAQK([γGlu-γGlu-AEEA-C20 diacid])FVKWLEDEPSSGAPPPS-OH; lactam 24-28) displayed an EC50 above 1 nM.

The record behind these values is US20240228572A1 (i2o Therapeutics, Inc., priority 2020, published 2024).
